Where a SMILES comes first, the peptide text is derived from it. Bridges are numbered along the chain shown (N, C = ends). [ ]: non-standard residue; d: D form. Cha = N[C@@H](CC1CCCCC1)C(=O)O; S5 = C=CCCC[C@](C)(N)C(=O)O
Assays:
MDA-MB-231 cells [1] = experiment: Matrigel invasion assay; type: cell-based, human; conditions: 24 hours; ND1-YL2 various concentrations, YL2 and RLAA 20 μM
Description: The inhibition of cell migration may be due to the inhibitory effect of ND1-YL2 on cell growth. In order to exclude this possibility, the invasive ability of cells treated with ND1-YL2 was confirmed. A Corning Matrigel insert (Corning) was placed in a 24-well plate. After hydrating the Matrigel insert with an FBS-free DMEM medium for 2 hours in a CO2 incubator, MDA-MB-231 cells were cultured in the Matrigel insert (4×10^4 cells/insert) with 125 μL of Opti-MEM medium. Another 125 μl of compound containing Opti-MEM medium was added to the insert. The lower chamber was filled with 500 μL of DMEM medium containing 10% FBS. The Matrigel chamber was cultured for 24 hours under the conditions of 37° C. and 5% CO2. The cell culture media of the upper and lower chambers were removed and washed three times with cold DPBS. Non-invasive cells were then removed with a cotton swab. The bottom of the chamber was fixed with 4% formaldehyde for 10 minutes at room temperature, and stained with Hoechst 33342 (5 μg/mL) for 5 minutes in a CO2 incubator. After washed with DPBS, images of infiltrated cells were obtained by a fluorescence microscope. The percentage of the invasive cells was calculated using the product manual. MDA-MB-231 cells were treated with various concentrations of ND1-YL2, N-degron (20 μM) or YL2 (20 μM). After 24 hours, images of the invaded cells were obtained by a fluorescence microscope, and the number of invaded cells was quantified through the images. […] The inhibitory activity of ND1-YL2 on cell migration and invasion is in good agreement with previous SRC-1 knockdown experiments.

SRC-1 = SRC-1 (Homo sapiens, UniProt Q15788); experiment: SRC-1 expression level in MDA-MB-231 cells by Western blot; type: cell-based; design: endogenous in cells; host or cells: MDA-MB-231; conditions: 20 μM, 12 hours
Sequence of SRC-1 (Q15788 whole entry): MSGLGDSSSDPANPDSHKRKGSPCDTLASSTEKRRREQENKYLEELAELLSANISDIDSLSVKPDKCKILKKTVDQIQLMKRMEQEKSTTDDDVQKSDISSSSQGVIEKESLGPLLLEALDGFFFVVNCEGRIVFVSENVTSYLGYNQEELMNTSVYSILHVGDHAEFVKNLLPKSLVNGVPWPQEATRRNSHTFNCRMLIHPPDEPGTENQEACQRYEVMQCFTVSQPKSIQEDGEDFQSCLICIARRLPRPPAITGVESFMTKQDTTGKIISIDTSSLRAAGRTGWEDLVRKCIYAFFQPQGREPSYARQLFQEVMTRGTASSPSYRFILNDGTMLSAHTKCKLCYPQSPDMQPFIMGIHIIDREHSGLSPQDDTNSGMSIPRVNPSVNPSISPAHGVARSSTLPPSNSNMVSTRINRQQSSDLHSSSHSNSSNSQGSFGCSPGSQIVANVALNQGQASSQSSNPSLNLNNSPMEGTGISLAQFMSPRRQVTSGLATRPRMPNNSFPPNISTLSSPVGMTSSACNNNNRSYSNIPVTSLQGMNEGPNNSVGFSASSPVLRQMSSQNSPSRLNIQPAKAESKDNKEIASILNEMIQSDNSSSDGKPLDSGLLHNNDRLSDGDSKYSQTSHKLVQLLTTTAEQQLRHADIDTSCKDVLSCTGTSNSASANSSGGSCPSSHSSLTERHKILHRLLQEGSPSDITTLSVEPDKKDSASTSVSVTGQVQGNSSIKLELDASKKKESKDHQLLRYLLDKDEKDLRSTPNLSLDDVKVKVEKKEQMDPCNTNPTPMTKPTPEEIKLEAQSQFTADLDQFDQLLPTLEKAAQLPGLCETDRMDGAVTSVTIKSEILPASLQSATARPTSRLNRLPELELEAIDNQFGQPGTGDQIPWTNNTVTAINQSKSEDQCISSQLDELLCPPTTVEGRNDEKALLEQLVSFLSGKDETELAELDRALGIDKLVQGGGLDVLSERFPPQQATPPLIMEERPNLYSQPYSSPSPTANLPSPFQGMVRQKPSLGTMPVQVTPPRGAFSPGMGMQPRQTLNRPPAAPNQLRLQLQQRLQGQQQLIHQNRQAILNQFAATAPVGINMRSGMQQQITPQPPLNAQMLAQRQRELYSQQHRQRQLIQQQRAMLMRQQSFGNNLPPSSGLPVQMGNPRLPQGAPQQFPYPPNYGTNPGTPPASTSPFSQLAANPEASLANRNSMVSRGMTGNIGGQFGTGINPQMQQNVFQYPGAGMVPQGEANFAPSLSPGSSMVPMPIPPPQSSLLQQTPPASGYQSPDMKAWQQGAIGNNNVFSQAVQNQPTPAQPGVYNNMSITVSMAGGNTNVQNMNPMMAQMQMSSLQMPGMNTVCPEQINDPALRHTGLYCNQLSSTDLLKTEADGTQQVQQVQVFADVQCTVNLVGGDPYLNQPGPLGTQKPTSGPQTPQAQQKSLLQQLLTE

MDA-MB-231 cells [2] = experiment: Gap closure migration assay; type: cell-based, human; conditions: 20 μM, 72 hours
Description: Based on the results that the SRC-1 degradation effectively affects the transcription mediated by SRC-1 (FIGS. 18A and 18B), it was predicted that ND1-YL2 would exert an inhibitory effect on downstream signaling pathways such as increased cancer cell migration and invasion. To test this, we first performed a gap closure migration assay using an invasive MDA-MB-231 cell line. MDA-MB-231 cells (70 μL of 4×10^5 cells/mL) were seeded in culture insert 2 wells (ibidi, 80209) pre-inserted into p-dishes (ibidi) under the conditions of 37° C. and 5% CO2. The culture insert 2 wells was gently removed with sterile tweezers. The cells were treated with DMSO, YL2 (20 […]), RLAA (20 μM) or ND1-YL2 (20 μM) in Opti-MEM medium for 72 hours. Images were obtained by a camera (Olympus) attached to an optical microscope. The cells were grown in the culture insert wells, and the inserts were removed to create intercellular gaps inside the wells. Subsequently, after treated with DMSO, YL2, RLAA peptide or ND1-YL2, the cells were cultured for 72 hours and the degree of cell migration was observed. The cell migration was quantified by analyzing the images of cells filling the gap.

E-cadherin = E-cadherin mRNA level by RT-qPCR in MDA-MB-231 cells; type: cell-based, human; conditions: 12 hours
From the text: (§1) The pharmacological effects on SRC-1 dependent signal transmission were explored using the previously discovered SRC-1 degrading substance. The SRC-1 is overexpressed in various cancers and plays a pivotal role in increasing cell migration and invasion by regulating the expression of related genes. Therefore, when treated with ND1-YL2, an SRC-1 degrading substance, the expression of genes stimulated by SRC-1, such as colony stimulating factor-1 (CSF-1), a gene encoding the cytokine CSF-1 that induces cell differentiation and migration, will be suppressed. To confirm this, MDA-MB-231 cells were treated with DMSO and various concentrations of ND1-YL2, YL2 or N-degron tetrapeptide for 12 hours, and the mRNA level of CSF-1 was normalized to 18S level. Confirmation was made using quantitative real-time polymerase chain reaction (RT-qPCR). MDA-MB-231 cells were seeded at 2×10^5 cells per well. After 24 hours, compounds (YL2, RLAA or ND1-YL2) were treated in Opti-MEM medium for 12 hours. Subsequently, general mRNA isolation was performed using TRI reagent (Takara), and total mRNA was isolated from the cells. The absorbance of total mRNA was measured with a Tecan F200 Nanophotometer, and reverse transcription was performed using AccuPower RocketScript Cycle RT PreMix (Bioneer). Quantitative real-time PCR for CSF-1, E-Cadherin and 18S was performed using a StepOnePlus Real-Time PCR System and SYBR Green mix (Applied Biosystems) according to the manufacturer's manual.
In addition, the effect of the ND1-YL2 on the expression of E-cadherin, a tumor suppressor gene that plays an important role in cell-cell adhesion, was tested. Since SRC-1 protein is known to suppress the E-cadherin expression, the ND1-YL2 will upregulate the E-cadherin by degrading SRC-1.

CSF-1 = CSF-1 mRNA level by RT-qPCR in MDA-MB-231 cells; type: cell-based, human; conditions: 12 hours
From the text: as §1

[3] = target: T1, UBR box (residues 113-194) in the UBR1 E3 ubiquitin ligase of S. cerevisiae (S. cerevisiae, UniProt P19812 113-194); experiment: competitive fluorescence polarization on the UBR box (as the sentence implies; the origin of the value is not stated)
T1 construct: range 113-194; Expressed and purified as in Nat; Struct; Mol. Biol. 2010, 17, 1175-1181
T1 sequence (looked up): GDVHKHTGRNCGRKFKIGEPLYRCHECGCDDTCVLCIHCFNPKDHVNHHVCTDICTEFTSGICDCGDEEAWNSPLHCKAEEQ

Molecule: CC(C)C[C@H](NC(=O)[C@@H](N)CCCNC(=N)N)C(=O)N[C@@H](C)C(=O)N[C@@H](C)C(N)=O [RLAA] (H-RLAA-NH2)
- Effect on cell invasion (MDA-MB-231 cells [1]): no significant effect
- SRC-1 degradation, single agents compared (SRC-1): Neither YL2 nor RLAA tetrapeptide per se had any effect
- Existing gaps maintained (cell migration) (MDA-MB-231 cells [2]): gaps were completely filled
- Effect on E-cadherin expression (mRNA) (E-cadherin): no effect
- Effect on CSF-1 expression (mRNA normalized to 18S) (CSF-1): did not significantly affect

Molecule: CC(C)C[C@@H]1NC(=O)[C@H](CCCCN)NC(=O)[C@@](C)(NC(=O)[C@H](CC(C)C)NC(=O)[C@H](CC(=O)O)NC(=O)[C@H](CCC(N)=O)NC(=O)[C@H](CCC(=O)O)NC(=O)[C@@H](NC(=O)[C@@H]2CCCN2C(=O)[C@@H]2CCCN2C(=O)[C@H](CC(C)C)NC(=O)[C@@H](N)CC(C)C)[C@@H](C)O)CCC/C=C\CCC[C@@](C)(C(=O)N[C@@H](Cc2ccc(O)cc2)C(N)=O)NC(=O)[C@H](CC2CCCCC2)NC1=O [YL2] (H-LLPPTEQDL[S5]KL[Cha][S5]Y-NH2; staple (Z) 10-14; N-terminus and C-terminus assumed)
- Effect on cell invasion (MDA-MB-231 cells [1]): no significant effect
- SRC-1 degradation, single agents compared (SRC-1): Neither YL2 nor RLAA tetrapeptide per se had any effect
- Existing gaps maintained (cell migration) (MDA-MB-231 cells [2]): gaps were completely filled
- Effect on E-cadherin expression (mRNA) (E-cadherin): no effect
- Effect on CSF-1 expression (mRNA normalized to 18S) (CSF-1): did not significantly affect

B1: RLAA tetrapeptide (peptide)
peptide: RLAA
notes: also called RLAA peptide; N-degron tetrapeptide
- Ki [3]: 4.2 µM
